This is an account of results in patent US20230265435A1, “COMPOSITION COMPRISING OSTEOPONTIN INHIBITOR AS ACTIVE INGREDIENT FOR PREVENTION, ALLEVIATION, OR TREATMENT OF NEURODEGENERATIVE DISEASE” (THE CATHOLIC UNIVERSITY OF KOREA INDUSTRY-ACADEMIC …, priority 2020, published 2023).

This data set relates to neural stem cells. Kind of data set: Amyloid beta toxicity, MTT assay, OPN antagonist treatment. It counts as cell-based. As for the experimental part: Next, to confirm the function of the OPN protein for amyloid beta neurotoxicity, the inventors confirmed the level of amyloid beta toxicity according to the treatment of an OPN antagonist or OPN siRNA using neuronal cells.
Specifically, approximately 5×10^4 neural stem cells were seeded in a 24-well plate, and cultured at 37° C. in a CO2 incubator for 24 hours. The medium in the cell-containing plate was replaced with an antibiotic-free, 0.1% serum-containing medium, treated with 0.5 μM levocetirizine (Sigma-Aldrich, L7795, OPN antagonist), and after 6 to 7 hours, the cells were further treated with 3 μM amyloid beta, and after 48 hours of culture, cell viability was confirmed through an MTT assay.

Regarding amyloid beta, the cell viability result (neural stem cells treated with 3 μM amyloid beta alone) was “approximately 60%”.
For the substance levocetirizine, under “0.5 μM levocetirizine with 3 μM amyloid beta, 48 hours”, the amyloid beta toxicity result was “greatly decreased”.
